Results as given in US8557574B2, “Fungal growth inhibitor” (Seikagaku Corporation, priority 2006, dated 2013).

How the values were obtained:
Candida albicans [1] = test: Analysis of the activity of inhibiting Candida growth of HA (absorbance at 660 nm); type: cell-based; settings: Candida albicans 5×10^5 cells/mL, 9 hours with HA of various concentration (0.1, 1.0 mg/mL) and weight average molecular weight; FIG. 3
Protocol: Co-culture of HA and Candida was carried out in 100 μl of a medium using a 96 well plate (manufactured by Iwaki). Candida albicans was prepared by growing it at 37° C. overnight in the GP broth under an aerobic condition. The Candida albicans culture mixture was incubated at 37° C. for 9 hours under a condition of 10% CO2 in the presence of various final concentrations (0.1 mg/mL, 1.0 mg/mL) of HA having various sizes (tetradecasaccharide, weight average molecular weight 60 kDa, 250 kDa, 800 kDa or 2,000 kDa).
(§1) After completion of the incubation, in order to evaluate the degree of growth of each Candida species, the culture medium was thoroughly mixed, and its absorbance at a wavelength of 660 nm was measured. Hereinafter, absorbance of the sample incubated in the presence of HA is referred to as “ODtest”. As a control, the absorbance at a wavelength of 660 nm was measured using a sample of each Candida species incubated in the same manner in the absence of HA. Hereinafter, absorbance of this control is referred to as “ODcontrol”.
(§2) Growth inhibition ratio (%) was calculated from the value of “ODtest” and the value of “ODcontrol” of its corresponding Candida species based on the following formula. Growth inhibition ratio (%)=(1−ODtest/ODcontrol)×100 (1-5-2) Quantitative Plate Count […]

[2] = test system: Candida glabrata ATCC 2001, Candida krusei ATCC 6258 and Candida tropicalis ATCC 4563; test: Activity of inhibiting growth for various Candida species by HA (absorbance at 660 nm); type: cell-based; settings: other Candida species 5×10^5 cells/mL, 9 hours with HA of 2,000 kDa; FIG. 5
Protocol: Additionally, other Candida species (Candida glabrata ATCC 2001, Candida krusei ATCC 6258 and Candida tropicalis ATCC 4563) were prepared by allowing them to grow at 37° C. overnight in the GP broth under an aerobic condition. Culture mixtures of these Candida species (cell density: 5×10^5) were incubated at 37° C. for 9 hours under a condition of 10% CO2 together with various final concentrations (0.1 mg/mL, 1.0 mg/mL) of HA having a weight average molecular weight of 2,000 kDa.
as §1, §2

Candida albicans [3] = test: Living body staining of Candida species (FDA/PI); type: cell-based; settings: conclusion from living body staining
Protocol: Co-culturing of an epithelial cell with a Candida species (effector:target ratio (to be referred to as “E:T” hereinafter) is 20:1, 40:1 or 80:1) was carried out in 100 μl of a medium using a 96 well plate (manufactured by Costar). After 9 hours of incubation, the co-culture mixture was recovered and washed twice. Fluorescein diacetate (which stain living cells, to be referred to as “FDA” hereinafter) (50 μg/mL) and propidium iodide (which stain dead cells, to be referred to as “PI” hereinafter)(1 μg/mL) (both manufactured by Sigma) (Adv. Biochem. Eng. Biotechnol., 62, p. 33-73 (1998), Anal. Chem., 37, p. 1219-1221 (1965)) were simultaneously added to the pellet of cells and incubated at room temperature for 20 minutes in the dark. In this connection, optimum concentrations of the respective pigments were determined by a preliminary test.
After the incubation, the co-culture mixture was washed with PBS and then with PBS containing 20% FCS, respectively, and then again washed with PBS. The pellet was resuspended in 100 μl, of PBS, and a 5 μL thereof was put on a slide glass and observed under a fluorescent phase contrast microscope (DP-70 manufactured by Olympus Corporation). Growth inhibition of Candida species by the epithelial cell was confirmed by 9 hours of a growth inhibition assay. […]

Candida albicans [4] = test: Candida growth inhibition by cells after removal of cell surface HA with hyaluronidase (quantitative plate count); type: cell-based; settings: various concentrations of hyaluronidase, E:T 80:1, FIG. 2
Protocol: The cells were treated using hyaluronidase (manufactured by Sigma) (50 units/10^6 cells) at 37° C. for 2 hours (J. Oral Sci., 45, p. 85-91 (2003)). The cells after the treatment were washed twice with phosphate buffered saline (pH 7.2, to be referred to as “PBS” hereinafter) and re-suspended in DMEM.
In order to monitor growth inhibition of Candida albicans, a quantitative plate count method was used (J. Infect. Dis., 182, p. 1479-1485 (2000), Infect. Immun., 69, p. 7091-7099 (2001), Med. Mycol., 37, p. 251-259 (1999)). In briefly describing, a co-culture mixture of the same effector and target was incubated at 37° C. for 9 hours under a condition of 5% CO2. […] It was incubated at 30° C. for 48 hours, and the colony forming unit (to be referred to as “CFU” hereinafter) was counted. Hereinafter, counted value of CFU of the sample incubated in the presence of HA is referred to as “test CFU”.
As a control, respective Candida species was incubated in the absence of HA, and this was subjected to the plating in the same manner. Hereinafter, counted value of CFU on the sample is referred to as “control CFU”.
Growth inhibition ratio (%) was calculated from the value of “test CFU” and the value of “control CFU” of its corresponding Candida species based on the following formula. […]

KB cells = test: MTT assay of hyaluronidase-treated cells; type: cell-based, human; settings: hyaluronidase 10, 20 or 100 units/mL, data not shown
Protocol: (§3) Assay of living cells was carried out in the same manner as in the reported reference (Infect. Immun., 69, p. 5925-5930 (2001)).
(§4) In briefly describing, firstly, the COS-7 and KB cells were plated on a 96 well plate at a density of 5×10^5 cells/mL. Hyaluronidase (manufactured by Sigma) haying a respective concentration of 10, 20 or 100 units/mL was added to it, and Candida albicans was cultured for 20 hours. MTT solution (20 μg/mL) was added to each well at the final stage of the culturing, and the contents of the plate were incubated for 4 hours. By adding 100 μL of acidic isopropanol (isopropanol containing 0.04M HCl) to this, the red formazan was eluted and thoroughly mixed. Formazan concentration in the solution of each well was measured by a plate reader (manufactured by Dynex) using 570 nm as the testing wavelength and 620 nm as the reference wave length, respectively.

COS-7 = test: MTT assay of hyaluronidase-treated cells; type: cell-based, Cercopithecus aetiopus; settings: COS-7 cells, hyaluronidase 10, 20 or 100 units/mL; data not shown
Protocol: as §3, §4

Substance	activity of inhibiting the Candida albicans growth (growth inhibition ratio) (Candida albicans [1])	activity of inhibiting growth for other Candida species (growth inhibition ratio) [2]	nature of the activity of inhibiting Candida growth (bactericidal or bacteriostatic) (Candida albicans [3])	activity of inhibiting Candida growth of the COS-7 cell after hyaluronidase treatment (Candida albicans [4])	influence upon the life or death of the cells (MTT) (KB cells)	influence upon the life or death of the cells (MTT) (COS-7)
hyaluronic acid [HA]	has activity of inhibiting the Candida albicans growth	exerts its activity of inhibiting growth	not bactericidal but rather bacteriostatic			
hyaluronidase				reduced	does not exert influence upon the life or death of the cells	does not exert influence upon the life or death of the cells
